From patent publication US7105516B2, “Compounds for the treatment of premature ejaculation” (Bristol-Myers Squibb Company, priority 2002, dated 2006) come the findings set out here.

Assay [1] has as its target T1, human norepinephrine transporters (Homo sapiens, UniProt P23975).
T1 construct: the text also calls them 'HEK-hNET cells'); membrane homogenates
In words: Norepinephrine Transporter Binding Assay ([3H]-nisoxetine displacement, hNET cell membranes). As to conditions: 2.7 nM [3H]-nisoxetine, 1 hr at 4° C., read-out: NE reuptake binding Ki. As for the experimental part:
MDCK cells that stably express human norepinephrine transporters (HEK-hNET cells) were supplied by Receptor Biology, Inc. Pellets were resuspended by homogenization in buffer consisting of 50 mM Tris (pH 7.4 at 25° C.), 120 mM NaCl and 5 mM KCl. Membrane homogenates (200 μl/well, 8 ug protein) were incubated with 2.7 nM [^3H]-nisoxetine (specific activity=80 Ci/mMol) and increasing concentrations of test compounds for 1 hr at 4° C. in a total volume of 250 μl. The assay buffer consisted of 50 mM Tris (pH 7.4 at 25° C.), 120 mM NaCl and 5 mM KCl (pH 7.4 with conc. HCl). Plates were incubated for 1 hr at 4° C., then filtered through 0.5% PEI treated Whatman GF/B filters using a Brandel cell harvester. Filters were washed three times with 3 mL of ice-cold tris wash buffer. Non-specific binding was defined with 10 μM desipramine. Amount of radioligand bound in the presence and absence of competitor was analyzed by plotting (−)log drug concentration versus the amount of radioligand specifically bound. The midpoint of the displacement curve (IC50, nM), signifies the potency. Ki values were calculated using the method of Cheng and Prusoff (1973).

The target of assay [2] is T2, human serotonin transporters (Homo sapiens, UniProt P31645).
T2 construct: expressed in transfected cells; membrane homogenates
In words: Serotonin Transporter Binding Assay ([3H]-citalopram displacement, HEK-hSERT cell membranes). The following applies: 1 nM [3H]-citalopram, 1 hr at 25° C. As for the experimental part:
HEK-293 cells that stably express human serotonin transporters (HEK-hSERT cells) were grown at 37° C. in 5% CO2 as a monolayer in medium consisting of EMEM supplemented with 10% fetal bovine serum and G418 sulfate (500 μg/mL). […] Cells were transferred from plates to polypropylene tubes (16×100 mm), centrifuged at 1,200×g for 5 min and were frozen at −80° C. until assay. Following centrifugation, pellets were resuspended by homogenization in buffer consisting of 50 mM Tris (pH 7.7 at 25° C.), 120 mM NaCl and 5 mM KCl and then centrifuged at 32,000×g for 10 min. Following centrifugation, supernatants were discarded and pellets were resuspended in buffer consisting of 50 mM Tris (pH 7.4 at 25° C.), 150 mM NaCl and 5 mM KCl. Membrane homogenates (200 μl/plate) were incubated with 1 nM [^3H]-citalopram (specific activity=85 Ci/mMol) and increasing concentrations of test compounds for 1 hr at 25° C. in a total volume of 250 μl. The assay buffer consisted of 50 mM Tris (pH 7.4 at 25° C.), 120 mM NaCl and 5 mM KCl (pH 7.4 with conc. HCl). Plates were incubated for 1 hr at 25° C., then filtered through 0.5% PEI treated Whatman GF/B filters using a Brandel cell harvester. Filters were washed three times with 3 mL of ice-cold tris wash buffer. Non-specific binding was defined with 10 μM fluoxetine. Amount of radioligand bound in the presence and absence of competitor was analyzed by plotting (−)log drug concentration versus the amount of radioligand specifically bound. The midpoint of the displacement curve (IC50, nM), signifies the potency.

Where [3] appears, read: read-out: 5-HT reuptake binding Ki.

Where two headings read alike, the source gives them in different places.

T1 sequence (P23975 whole entry): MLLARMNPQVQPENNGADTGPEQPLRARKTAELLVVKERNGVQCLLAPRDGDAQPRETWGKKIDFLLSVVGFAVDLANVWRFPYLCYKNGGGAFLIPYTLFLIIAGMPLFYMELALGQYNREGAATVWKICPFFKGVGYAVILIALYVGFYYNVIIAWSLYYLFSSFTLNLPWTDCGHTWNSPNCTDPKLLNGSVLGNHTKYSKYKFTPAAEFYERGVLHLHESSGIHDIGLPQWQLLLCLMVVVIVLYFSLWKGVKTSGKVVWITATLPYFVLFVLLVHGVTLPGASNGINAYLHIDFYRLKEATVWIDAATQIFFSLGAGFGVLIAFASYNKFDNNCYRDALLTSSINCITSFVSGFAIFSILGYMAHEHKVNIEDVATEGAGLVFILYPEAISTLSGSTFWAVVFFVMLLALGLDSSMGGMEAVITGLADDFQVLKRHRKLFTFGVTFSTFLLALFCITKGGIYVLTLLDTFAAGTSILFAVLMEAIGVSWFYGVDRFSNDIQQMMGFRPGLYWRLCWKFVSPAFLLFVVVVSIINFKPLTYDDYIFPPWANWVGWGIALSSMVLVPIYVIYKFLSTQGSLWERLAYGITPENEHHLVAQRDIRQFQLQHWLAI
T2 sequence (P31645 whole entry): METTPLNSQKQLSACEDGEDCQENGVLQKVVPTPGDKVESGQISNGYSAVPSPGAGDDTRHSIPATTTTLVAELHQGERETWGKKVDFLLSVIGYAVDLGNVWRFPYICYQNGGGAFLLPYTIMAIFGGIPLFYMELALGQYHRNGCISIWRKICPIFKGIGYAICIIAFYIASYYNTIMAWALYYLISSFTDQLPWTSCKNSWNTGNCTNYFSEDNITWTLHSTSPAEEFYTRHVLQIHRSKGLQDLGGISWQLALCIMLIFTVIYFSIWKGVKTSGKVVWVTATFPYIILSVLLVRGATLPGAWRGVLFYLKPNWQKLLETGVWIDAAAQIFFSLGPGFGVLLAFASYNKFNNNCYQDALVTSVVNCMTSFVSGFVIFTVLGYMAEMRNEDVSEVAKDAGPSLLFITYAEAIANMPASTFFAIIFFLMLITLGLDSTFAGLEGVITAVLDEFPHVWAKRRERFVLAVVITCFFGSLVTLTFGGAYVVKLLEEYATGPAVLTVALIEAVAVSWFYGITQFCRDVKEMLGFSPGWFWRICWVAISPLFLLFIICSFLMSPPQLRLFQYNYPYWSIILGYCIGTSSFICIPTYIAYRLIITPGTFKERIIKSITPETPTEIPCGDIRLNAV

Regarding `CN(Cc1ccccc1)C[C@H]1CCC[C@@H]1c1c[nH]c2ccc(C#N)cc12` (relative stereo) [Example 31, Trans-3-{2-[(benzyl-methyl-amino)-methyl]-cyclopentyl}-1H-indole-5-carbonitrile], the Ki in assay [1] was above 1000 nM; in assay [2] (setting [3]) it was 10 to 100 nM.
With `CN(C)C[C@H]1CCC[C@@H]1c1cn(C)c2ccc(C#N)cc12` (relative stereo) [Example 32, Trans-3-(2-dimethylaminomethyl-cyclopentyl)-1-methyl-1H-indole-5-carbonitrile], the values for the Ki in assay [1] and in assay [2] (5-HT reuptake binding Ki) were above 1000 nM and 1 to 10 nM, respectively.
As to `CN(C)C[C@H]1CCC[C@@H]1c1ccc2[nH]cc(C#N)c2c1` (relative stereo) [Example 34, Trans-5-(2-dimethylaminomethyl-cyclopentyl)-1H-indole-3-carbonitrile], the Ki in assay [1] was above 1000 nM; in assay [2] (setting [3]), 1 to 10 nM.
As to `CN(C)C[C@H]1CCC[C@@H]1c1c[nH]c2ccc(C#N)cc12` (racemic) [Example 25, Trans-3-(2-dimethylaminomethyl-cyclopentyl)-1H-indole-5-carbonitrile], the values for the Ki in assay [1] and in assay [2] (5-HT reuptake binding Ki) were above 1000 nM and below 1 nM, respectively.
For the compound `CCN(CC)C[C@H]1CCC[C@@H]1c1ccc2[nH]cc(C#N)c2c1` (relative stereo) [Example 39, Trans-5-(diethylaminomethyl-cyclopentyl)-1H-indole-3-carbonitrile], the Ki was above 1000 nM in assay [1] and 100 to 500 nM in assay [2] (setting [3]).

The Ki is the dissociation constant of the complex between target and ligand, obtained from inhibition or displacement.
